Like-named read-outs stand apart in the source and are kept apart here.
Assays:
3CLpro [1] = target: T1, 3CLpro (Severe acute respiratory syndrome coronavirus 2, UniProt P0DTD1); conditions: cited from earlier work; for IC50: read-out: IC50 3CLpro
SARS-CoV-2 3CLpro = SARS-CoV-2 3CLpro (Severe acute respiratory syndrome coronavirus 2, UniProt P0DTD1); assay: biochemical; assay type: biochemical; conditions: for concentration from which inhibitory effect on 3CLpro activity is significant: tested 0.1 to 100 µM
3CLpro [2] = target: T1, 3CLpro; assay: biochemical; conditions: SPR, 1:1 binding model; read-out: KD TA/3CLpro
3CLpro [3] = target: T1, 3CLpro; assay type: binding; conditions: TA 10 to 500 µM, 30 min
3CLpro [4] = target: T1, 3CLpro; conditions: FRET-based assay; cited from earlier work
[5] = design: method as in PMID 12111394, PMID 16526653; conditions: ref 38, 39; cited from earlier work
3CLpro [6] = target: T1, 3CLpro; conditions: cited from earlier work; for binding free energy of 3CLpro: ref 66
mice = conditions: even at high dosages; cited from earlier work

O=C(O[C@H]1Cc2c(O)cc(O)cc2OC1c1cc(O)c(O)c2c(=O)c(O)cc(C3Oc4cc(O)cc(O)c4C[C@H]3O)cc12)c1cc(O)c(O)c(O)c1 (stereo partly drawn) [3-isotheaflavin-3-gallate, reference compound]
IC50 (3CLpro [1]): 7000 nM

O=C(OC[C@H]1OC(OC(=O)c2cc(O)c(O)c(OC(=O)c3cc(O)c(O)c(O)c3)c2)[C@H](OC(=O)c2cc(O)c(O)c(OC(=O)c3cc(O)c(O)c(O)c3)c2)[C@@H](OC(=O)c2cc(O)c(O)c(OC(=O)c3cc(O)c(O)c(O)c3)c2)[C@@H]1OC(=O)c1cc(O)c(O)c(OC(=O)c2cc(O)c(O)c(O)c2)c1)c1cc(O)c(O)c(OC(=O)c2cc(O)c(O)c(O)c2)c1 (stereo partly drawn) [TA, 1,2,3,4,6-penta-O-{3,4-dihydroxy-5-((3,4,5-trihydroxybenzoyl)oxy)benzoyl}-D-glucopyranose]
reduction of 3CLpro activity (SARS-CoV-2 3CLpro; at 10 µM): up to 95%
IC50 (SARS-CoV-2 3CLpro; this study): 1000 nM
Kd (3CLpro [2]): 57.5 nM
TA adsorption onto 3CLpro (QCMD) (3CLpro [3]): TA adsorption is observed to increase with higher TA concentrations
IC50 (3CLpro [1]; lower end of literature range): 2100 nM
IC50 (3CLpro [1]): 3000 nM
inhibition of 3CLpro activity (3CLpro [1]; ref 35, 36, 37): 100%
IC50 (3CLpro [1]; upper end of literature range): 9000 nM
IC50 (3CLpro [4]): 13400 nM
solubility in water [5]: highly soluble

O=C(OC[C@H]1O[C@@H](OC(=O)c2cc(O)c(O)c(O)c2)[C@H](O)[C@@H](OC(=O)c2cc(O)c(O)c(O)c2)[C@@H]1O)c1cc(O)c(O)c(O)c1 [TGG, 1,3,6-tri-O-galloyl-β-D-glucose]
concentration from which inhibitory effect on 3CLpro activity is significant (SARS-CoV-2 3CLpro): ≥ 50 µM

COc1ccc(-c2cc(=O)c3c(O)cc(O[C@@H]4O[C@H](CO[C@@H]5O[C@@H](C)[C@H](O)[C@@H](O)[C@H]5O)[C@@H](O)[C@H](O)[C@H]4O)cc3o2)cc1 [acaciin]
free energy of the 3CLpro complex (3CLpro [6]; ref 67): -27.61 kcal/mol

O=c1cc(-c2ccc(O)c(-c3c(O)cc(O)c4c(=O)cc(-c5ccc(O)cc5)oc34)c2)oc2cc(O)cc(O)c12 [amentoflavone]
binding free energy of 3CLpro (3CLpro [6]): -32.14 ± 4.73 kcal/mol

O=C(O[C@@H]1O[C@@H]2COC(=O)c3cc(O)c(O)c(O)c3-c3c(cc(O)c(O)c3O)C(=O)O[C@H]([C@H]1O)[C@@H]2O)c1cc(O)c(O)c(O)c1 [corilagin, β-1-O-galloyl-3,6-(R)-hexahydroxydiphenoyl-D-glucose]
concentration from which inhibitory effect on 3CLpro activity is significant (SARS-CoV-2 3CLpro): ≥ 50 µM
inhibition of 3CLpro activity (3CLpro [1]; ref 33): 88%
toxicity in mice (mice): very low toxicity

CCC(CC)COC(=O)[C@H](C)N[P@](=O)(OC[C@H]1O[C@@](C#N)(c2ccc3c(N)ncnn23)[C@H](O)[C@@H]1O)Oc1ccccc1 [remdesivir]
binding free energy of 3CLpro (3CLpro [6]): -26.67 ± 3.39 kcal/mol

C[C@@H]1O[C@@H](OC[C@H]2O[C@@H](Oc3c(-c4ccc(O)c(O)c4)oc4cc(O)cc(O)c4c3=O)[C@H](O)[C@@H](O)[C@@H]2O)[C@H](O)[C@H](O)[C@H]1O [rutin]
binding free energy of 3CLpro (3CLpro [6]): -30.96 ± 5.56 kcal/mol

(−)-epicatechin-3-O-gallate [ECG]
IC50 (3CLpro [1]): 847 ± 5 nM
MMPBSA binding free energy with 3CLpro (3CLpro [6]; ref 33): -41.5 ± 5.1 kcal/mol
MMPBSA binding free energy with 3CLpro (3CLpro [6]; ref 68): -46.03 ± 6.48 kcal/mol

cyanidin-3-O-glucoside
MMPBSA binding free energy with 3CLpro (3CLpro [6]; protomer A): -50.8 kcal/mol
MMPBSA binding free energy with 3CLpro (3CLpro [6]; protomer B): -42.1 kcal/mol

Source: article PMC8910432 (International Journal of Molecular Sciences, 2022)
